Data on one compound can be found in patent US9346957B2, “Cell permeable, fluorescent dye” (École Polytechnique Fédérale de Lausanne (EPFL), priority 2011, dated 2016).

One data set concerns SNAP-tag fusion proteins. Briefly: Live cell labeling of SNAP-tag fusion proteins, fluorescence imaging. The format is cell-based. The note with it: living mammalian cells, incubation with dye. As for the experimental part: (§1) As a representative example for the labeling of a SNAP-tag fusion with BG-Sir650, the labeling and fluorescence imaging of SNAP-Cep41 (microtubule binding protein) fusion protein in U2OS cells is described. SNAP-Cep41 was expressed from episomal pEBTet plasmid encoding puromycin resistance under a doxycycline inducible promoter in U2OS cells. Prior to induction of expression, cells were selected by growing them in complete Dulbecco's Modified Eagle's Medium (DMEM) with 1 μg/ml puromycin for at least 1.5 weeks. SNAP-Cep41 fusion protein expression was induced for 48 h by adding to complete DMEM grow medium doxycycline at final concentration of 0.1 μg/ml before staining procedure. Living cells were stained by replacing old media with complete DMEM growth media containing 5 μM BG-SiR650, and incubated for 30 min at 37° C. in 5% CO2 incubator. Cells were washed two times with Hank's Buffered Salt Solution (HBSS) for 5 min and once with media for 1 h. Before imaging, growth media was replaced with HBSS. Images (FIG. 2A) were acquired on a confocal fluorescence microscope as z-stacks and presented as maximum intensity projections. For the imaging of fixed cells, living cells were labeled with 1 μM BG-Sir650 for 30 min at 37° C. […] Images (FIG. 2B) were acquired on a confocal fluorescence microscope as z-stack and presented as maximum intensity projections. […]

A further data set has as its system mammalian cells. Kind of data set: Membrane permeability, shown by incubating cells with the dye and fluorescence imaging. The format is cell-based. The note with it: simple incubation with the dye. As to the method: as §1

As for `CN(C)c1ccc2c(c1)[Si](C)(C)C1=CC(=[N+](C)C)C=CC1=C2c1cc(C(=O)NCc2ccc(COc3nc(N)nc4[nH]cnc34)cc2)ccc1C(=O)[O-]` [SiR650-6BG], the “specific labeling of SNAP-tag fusion proteins in living cells” value with SNAP-tag fusion proteins is reported as “permits the specific labeling of SNAP-tag fusion proteins”. In the data set on mammalian cells, the membrane permeability result is given as “excellent membrane permeability”.
